The values that follow come from ChEMBL document CHEMBL3991601, “The target landscape of clinical kinase drugs” (Science, 2017).

Activity calls are given as the source filed them. No stated cut-off is given here; in the data, actives have a measured Kd and inactives only a lower limit. Where only a bound is given, the exact number is not on record here.

Experiment [1] deals with Ribosomal protein S6 kinase alpha-5 (Homo sapiens, UniProt O75582).
Experiment [2] deals with T1, Inhibitor of nuclear factor kappa-B kinase subunit epsilon (Homo sapiens, UniProt Q14164).
T1 sequence (Q14164 whole entry): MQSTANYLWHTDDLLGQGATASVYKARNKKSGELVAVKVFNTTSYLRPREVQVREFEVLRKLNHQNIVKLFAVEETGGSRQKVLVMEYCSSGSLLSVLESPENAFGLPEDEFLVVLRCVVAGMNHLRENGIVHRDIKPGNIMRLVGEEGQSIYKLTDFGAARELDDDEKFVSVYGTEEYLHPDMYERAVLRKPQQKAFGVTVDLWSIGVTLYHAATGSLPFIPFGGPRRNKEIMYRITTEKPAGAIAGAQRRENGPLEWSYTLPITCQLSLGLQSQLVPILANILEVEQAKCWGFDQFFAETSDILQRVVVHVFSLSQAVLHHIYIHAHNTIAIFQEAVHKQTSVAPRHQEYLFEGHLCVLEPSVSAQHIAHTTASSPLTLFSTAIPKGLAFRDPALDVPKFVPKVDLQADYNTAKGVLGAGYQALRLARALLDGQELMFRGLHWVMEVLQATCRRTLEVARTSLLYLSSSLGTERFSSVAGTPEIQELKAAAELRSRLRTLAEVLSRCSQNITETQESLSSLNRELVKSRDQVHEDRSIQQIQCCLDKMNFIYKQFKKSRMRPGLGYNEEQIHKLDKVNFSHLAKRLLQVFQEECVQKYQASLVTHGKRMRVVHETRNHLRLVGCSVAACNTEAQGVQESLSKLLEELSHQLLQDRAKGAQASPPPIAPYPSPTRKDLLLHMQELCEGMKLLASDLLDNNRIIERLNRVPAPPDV

For experiment [3], the target named is Glycogen synthase kinase-3 alpha (Homo sapiens, UniProt P49840).
Sequence of Glycogen synthase kinase-3 alpha (P49840 whole entry): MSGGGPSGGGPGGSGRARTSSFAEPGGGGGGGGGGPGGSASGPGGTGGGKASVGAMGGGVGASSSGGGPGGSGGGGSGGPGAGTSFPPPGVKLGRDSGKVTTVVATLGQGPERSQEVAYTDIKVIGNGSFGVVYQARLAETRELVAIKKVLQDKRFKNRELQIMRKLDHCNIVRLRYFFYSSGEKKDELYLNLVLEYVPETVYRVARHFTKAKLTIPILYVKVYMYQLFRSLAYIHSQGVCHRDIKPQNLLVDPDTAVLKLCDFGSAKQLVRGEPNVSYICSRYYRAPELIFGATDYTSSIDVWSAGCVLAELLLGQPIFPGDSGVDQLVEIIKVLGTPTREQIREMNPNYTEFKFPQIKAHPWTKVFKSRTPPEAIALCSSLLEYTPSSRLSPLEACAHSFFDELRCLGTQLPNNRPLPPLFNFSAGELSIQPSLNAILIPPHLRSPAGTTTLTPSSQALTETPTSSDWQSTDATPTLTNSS
A further experiment concerns the target T2, Ephrin type-B receptor 2 (Homo sapiens, UniProt P29323).
T2 sequence (P29323 whole entry): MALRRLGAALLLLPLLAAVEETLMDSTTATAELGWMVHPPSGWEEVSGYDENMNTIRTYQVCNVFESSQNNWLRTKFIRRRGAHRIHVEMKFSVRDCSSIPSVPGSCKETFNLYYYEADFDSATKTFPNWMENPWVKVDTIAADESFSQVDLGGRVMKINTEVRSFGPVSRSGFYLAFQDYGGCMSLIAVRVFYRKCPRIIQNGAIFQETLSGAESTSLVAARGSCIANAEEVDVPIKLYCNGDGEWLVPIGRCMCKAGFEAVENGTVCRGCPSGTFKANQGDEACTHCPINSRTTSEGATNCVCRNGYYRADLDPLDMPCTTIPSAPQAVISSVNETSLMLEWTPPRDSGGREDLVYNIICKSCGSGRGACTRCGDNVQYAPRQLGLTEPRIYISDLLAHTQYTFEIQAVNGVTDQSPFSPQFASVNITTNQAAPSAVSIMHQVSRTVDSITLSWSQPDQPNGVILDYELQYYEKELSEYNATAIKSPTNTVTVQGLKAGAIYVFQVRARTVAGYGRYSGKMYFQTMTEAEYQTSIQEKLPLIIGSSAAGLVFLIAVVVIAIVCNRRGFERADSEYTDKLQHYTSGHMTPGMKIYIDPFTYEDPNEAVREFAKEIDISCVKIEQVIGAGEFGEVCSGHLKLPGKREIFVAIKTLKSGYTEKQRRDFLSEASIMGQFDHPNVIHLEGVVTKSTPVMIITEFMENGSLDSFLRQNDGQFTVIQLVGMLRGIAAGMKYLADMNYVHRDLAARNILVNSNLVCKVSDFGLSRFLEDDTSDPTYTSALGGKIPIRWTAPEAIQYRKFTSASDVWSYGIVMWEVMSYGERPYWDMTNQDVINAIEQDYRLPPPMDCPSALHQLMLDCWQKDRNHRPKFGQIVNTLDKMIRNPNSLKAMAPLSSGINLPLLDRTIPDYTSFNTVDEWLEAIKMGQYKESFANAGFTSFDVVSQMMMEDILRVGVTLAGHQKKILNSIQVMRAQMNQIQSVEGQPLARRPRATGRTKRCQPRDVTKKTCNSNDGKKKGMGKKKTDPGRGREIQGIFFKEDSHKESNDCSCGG

Experiment [4] addresses T3, Calcium/calmodulin-dependent protein kinase type IV (Homo sapiens, UniProt Q16566).
T3 sequence (Q16566 whole entry): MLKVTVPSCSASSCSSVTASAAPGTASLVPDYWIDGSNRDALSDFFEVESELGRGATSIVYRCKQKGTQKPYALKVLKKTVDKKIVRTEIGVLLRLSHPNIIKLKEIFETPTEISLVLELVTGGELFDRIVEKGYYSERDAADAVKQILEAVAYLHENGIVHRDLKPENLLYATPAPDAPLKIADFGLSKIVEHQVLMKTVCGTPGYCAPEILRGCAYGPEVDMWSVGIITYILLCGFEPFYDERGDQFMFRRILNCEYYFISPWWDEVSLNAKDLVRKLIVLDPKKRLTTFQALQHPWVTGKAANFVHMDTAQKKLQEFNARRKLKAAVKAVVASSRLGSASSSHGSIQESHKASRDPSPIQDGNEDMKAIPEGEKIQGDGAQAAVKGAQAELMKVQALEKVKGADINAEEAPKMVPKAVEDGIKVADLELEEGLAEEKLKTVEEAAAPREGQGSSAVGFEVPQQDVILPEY

The target of experiment [5] is T4, Ribosyldihydronicotinamide dehydrogenase [quinone] (Homo sapiens, UniProt P16083).
T4 sequence (P16083 whole entry): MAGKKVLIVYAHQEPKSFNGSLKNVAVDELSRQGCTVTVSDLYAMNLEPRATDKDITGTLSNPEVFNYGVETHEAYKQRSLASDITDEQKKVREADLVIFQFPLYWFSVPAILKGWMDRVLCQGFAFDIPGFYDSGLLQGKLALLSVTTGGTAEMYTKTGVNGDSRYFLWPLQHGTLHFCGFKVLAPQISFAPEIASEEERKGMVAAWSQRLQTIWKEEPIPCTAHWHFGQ

Sequence of Ribosomal protein S6 kinase alpha-5 (O75582 whole entry): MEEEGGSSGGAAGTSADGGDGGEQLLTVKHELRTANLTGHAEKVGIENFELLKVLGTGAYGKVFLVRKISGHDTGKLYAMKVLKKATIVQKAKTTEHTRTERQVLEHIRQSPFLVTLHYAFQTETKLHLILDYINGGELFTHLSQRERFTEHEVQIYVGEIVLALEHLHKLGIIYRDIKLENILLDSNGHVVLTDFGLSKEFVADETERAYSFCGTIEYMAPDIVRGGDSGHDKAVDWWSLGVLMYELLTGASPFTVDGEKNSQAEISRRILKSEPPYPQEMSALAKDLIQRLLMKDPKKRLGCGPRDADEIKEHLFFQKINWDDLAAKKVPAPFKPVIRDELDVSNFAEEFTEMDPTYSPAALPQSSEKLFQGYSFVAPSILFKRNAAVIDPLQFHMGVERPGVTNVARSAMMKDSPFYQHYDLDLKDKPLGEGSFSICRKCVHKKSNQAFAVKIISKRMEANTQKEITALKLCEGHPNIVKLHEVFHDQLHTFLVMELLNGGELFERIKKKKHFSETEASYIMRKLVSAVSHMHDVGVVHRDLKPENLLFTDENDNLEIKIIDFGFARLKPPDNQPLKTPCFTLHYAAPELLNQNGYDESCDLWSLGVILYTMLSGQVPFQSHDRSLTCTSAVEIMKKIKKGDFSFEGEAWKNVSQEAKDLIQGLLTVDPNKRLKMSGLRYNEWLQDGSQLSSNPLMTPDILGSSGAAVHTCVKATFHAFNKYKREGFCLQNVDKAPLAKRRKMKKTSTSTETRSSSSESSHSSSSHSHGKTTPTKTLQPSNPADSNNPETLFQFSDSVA

Consider `FC(F)(F)c1ccc(CNc2ccc(Cc3c[nH]c4ncc(Cl)cc34)cn2)cn1` [PEXIDARTINIB], for which the Kd (in experiment [1]; in experiment [2]; in experiment [3]; at Ephrin type-B receptor 2; in experiment [4]; in experiment [5]) was > 30 µM (inactive) in each case.
On to `CC(C)(O)CC(=O)NCCn1ccc2ncnc(Nc3ccc(Oc4cccc(C(F)(F)F)c4)c(Cl)c3)c21` [TAK-285], for which the Kd (in experiment [1]; in experiment [2]; in experiment [3]; on Ephrin type-B receptor 2; in experiment [4]; in experiment [5]) was > 30 µM (inactive) in each case.
As to `Cc1cc(C(=O)Nc2cc(Oc3ccc4nc(NC(=O)C5CC5)cn4n3)ccc2C)n(C)n1` [TAK-593], the Kd (in experiment [1]; in experiment [2]; in experiment [3]; at Ephrin type-B receptor 2; in experiment [4]; in experiment [5]) was > 30 µM (inactive) in each case.
Regarding `CCc1nc(C(N)=O)c(Nc2ccc(N3CCC(N4CCN(C)CC4)CC3)c(OC)c2)nc1NC1CCOCC1` [GILTERITINIB], the Kd (in general, the free concentration of one partner at which half of the binding sites on the other are occupied at equilibrium, for simple one-to-one binding) was > 30 µM (inactive) in experiment [1]; 1.47 µM (active) in experiment [2]; > 30 µM (inactive) in experiment [3]; > 30 µM (inactive) at Ephrin type-B receptor 2; 0.421 µM (active) in experiment [4]; 1.7 µM (active) in experiment [5].
Consider `NC[C@@](O)(c1ccc(Cl)cc1)c1ccc(-c2cn[nH]c2)cc1` [AT-13148], for which the Kd (in experiment [1]; in experiment [2]; in experiment [3]; on Ephrin type-B receptor 2; in experiment [4]; in experiment [5]) was > 30 µM (inactive) in each case.
`COc1cc(F)c(F)c(Nc2ccc(I)cc2F)c1NS(=O)(=O)C1(C[C@H](O)CO)CC1` [REFAMETINIB]: the Kd (in experiment [1]; in experiment [2]; in experiment [3]; on Ephrin type-B receptor 2; in experiment [4]; in experiment [5]) was > 30 µM (inactive) each time.
As to `COc1cc2ncnc3c2cc1OCCCCCN(C)Cc1ccc(Br)cc1N3` [JNJ-26483327], the Kd (in experiment [1]; in experiment [2]; in experiment [3]; at Ephrin type-B receptor 2; in experiment [4]; in experiment [5]) was > 30 µM (inactive) throughout.
In the case of `C=CC(=O)Nc1cccc(Nc2nc(Nc3ccc(N4CCN(C(C)=O)CC4)cc3OC)ncc2C(F)(F)F)c1` [ROCILETINIB], the Kd (in experiment [1]; in experiment [2]; in experiment [3]; on Ephrin type-B receptor 2; in experiment [4]; in experiment [5]) was > 30 µM (inactive) in each case.
Consider `CCc1cc2c(cc1N1CCC(N3CCOCC3)CC1)C(C)(C)c1[nH]c3cc(C#N)ccc3c1C2=O` [ALECTINIB], for which the Kd (in experiment [1]; in experiment [2]; in experiment [3]; at Ephrin type-B receptor 2; in experiment [4]; in experiment [5]) was > 30 µM (inactive) in each case.
Regarding `COc1cc2ncnc(Nc3ccc(F)c(Cl)c3)c2cc1NC(=O)/C=C/CN1CCCCC1` [DACOMITINIB ANHYDROUS], the Kd (in experiment [1]; in experiment [2]; in experiment [3]; on Ephrin type-B receptor 2; in experiment [4]; in experiment [5]) was > 30 µM (inactive) in each case.
For `Cc1c(NC(=O)OC[C@@H]2COCCN2)cn2ncnc(Nc3ccc4c(cnn4Cc4cccc(F)c4)c3)c12` [AC-480], the Kd (in experiment [1]; in experiment [2]; in experiment [3]; on Ephrin type-B receptor 2; in experiment [4]; in experiment [5]) was > 30 µM (inactive) throughout.
On to `Cc1cc(-c2cc(OC(=O)c3ccccc3)ccc2Cl)cc2nnc(Nc3ccc(OCCN4CCCC4)cc3)nc12` [TG100-801], for which the Kd was > 30 µM (inactive) in experiment [1]; > 30 µM (inactive) in experiment [2]; > 30 µM (inactive) in experiment [3]; 1.3 µM (active) on Ephrin type-B receptor 2; > 30 µM (inactive) in experiment [4]; > 30 µM (inactive) in experiment [5].
Turning to `COc1cc2nccc(Oc3ccc(NC(=O)C4(C(=O)Nc5ccc(F)cc5)CC4)cc3)c2cc1OC` [CABOZANTINIB], the Kd (in experiment [1]; in experiment [2]; in experiment [3]; at Ephrin type-B receptor 2; in experiment [4]; in experiment [5]) was > 30 µM (inactive) each time.
As for `Cc1c(Cn2c(C)nc3c(C(=O)O)cc(N4CCOCC4)cc32)cccc1C(F)(F)F` [GSK-2636771], the Kd (in experiment [1]; in experiment [2]; in experiment [3]; at Ephrin type-B receptor 2; in experiment [4]; in experiment [5]) was > 30 µM (inactive) in each case.
As for `Cc1cc(Nc2nc(N[C@@H](C)c3ncc(F)cn3)ncc2Cl)n[nH]1` [AZD-1480], the Kd (in experiment [1]; in experiment [2]; in experiment [3]; on Ephrin type-B receptor 2; in experiment [4]; in experiment [5]) was > 30 µM (inactive) each time.
As for `Cc1ccc(C(=O)Nc2ccc(Oc3cc4cnn(C)c4cc3-c3cn[nH]c3)c(F)c2)c(=O)n1-c1ccc(F)cc1` [MERESTINIB], the Kd was > 30 µM (inactive) in experiment [1]; > 30 µM (inactive) in experiment [2]; > 30 µM (inactive) in experiment [3]; > 30 µM (inactive) on Ephrin type-B receptor 2; 3.26 µM (active) in experiment [4]; > 30 µM (inactive) in experiment [5].
